Where only a bound is given, the exact number is not on record here.

In this experiment the target is T1, human SARM1(50-724) (Homo sapiens, UniProt Q6SZW1).
T1 construct: 40 nM human SARM1(50-724)
T1 sequence (Q6SZW1 50-724): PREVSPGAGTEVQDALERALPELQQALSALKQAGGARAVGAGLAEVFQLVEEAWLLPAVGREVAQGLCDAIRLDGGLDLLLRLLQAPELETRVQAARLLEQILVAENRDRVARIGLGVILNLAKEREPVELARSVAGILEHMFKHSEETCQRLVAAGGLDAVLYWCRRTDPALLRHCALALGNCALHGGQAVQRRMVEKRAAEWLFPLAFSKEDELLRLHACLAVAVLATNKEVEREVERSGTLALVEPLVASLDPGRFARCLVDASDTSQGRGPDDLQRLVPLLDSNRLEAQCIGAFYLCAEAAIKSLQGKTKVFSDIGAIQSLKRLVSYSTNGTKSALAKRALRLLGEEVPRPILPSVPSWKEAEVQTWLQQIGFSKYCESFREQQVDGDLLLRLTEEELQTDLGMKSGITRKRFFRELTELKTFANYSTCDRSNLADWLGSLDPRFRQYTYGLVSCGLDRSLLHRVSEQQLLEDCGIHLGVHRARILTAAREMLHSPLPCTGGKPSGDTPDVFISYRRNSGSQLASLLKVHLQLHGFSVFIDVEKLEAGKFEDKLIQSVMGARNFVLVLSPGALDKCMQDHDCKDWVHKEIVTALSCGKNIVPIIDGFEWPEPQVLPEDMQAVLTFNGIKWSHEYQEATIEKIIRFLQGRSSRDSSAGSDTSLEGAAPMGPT
Kind of experiment: SARM1 NADase biochemical assay (HPLC of NAD and NAM). To be noted: 40 nM human SARM1(50-724), 0.3 mM NMN, 20 μM NAD, 60 minutes room temperature; dose-response from 100 μM, 1:3 dilution. The procedure, abridged:
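Human SARM1(50-724) at 40 nM with 0.3 mM NMN, 20 μM NAD, 1 mM TCEP in 25 mM HEPES pH 7.4, 10 mM KCl, 10 mM MgCl2, 1% DMSO; 60 min at room temperature, formic acid quench. NAD and NAM quantified by reverse-phase HPLC peak area; single point 50 μM or 1:3 series from 100 μM.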

In the case of `Cc1c(-c2ccncc2)n[nH]c1NC(=O)CCc1ccc2ccccc2c1` [Example 28, N-(4-Methyl-3-(pyridin-4-yl)-1H-pyrazol-5-yl)-3-(naphthalen-2-yl)propanamide], the IC50 was 1 to 10 µM. Take `O=C(NCc1cc(F)c(F)c(F)c1)Nc1cc(-c2ccncc2)n[nH]1` [Example 164, 1-(3-(Pyridin-4-yl)-1H-pyrazol-5-yl)-3-(3,4,5-trifluorobenzyl)urea]: the IC50 was below 1 µM. In the case of `Cc1c(NC(=O)COc2ccc(Cl)cc2)cnn1-c1ccncc1` [Example 85, 2-(4-Chlorophenoxy)-N-(5-methyl-1-(pyridin-4-yl)-1H-pyrazol-4-yl)acetamide] it was 1 to 10 µM; in that of `O=C(CCc1cc(F)c(F)c(F)c1)Nc1cnn(-c2ccncc2)c1Cl` [Example 92, N-(5-Chloro-1-(pyridin-4-yl)-1H-pyrazol-4-yl)-3-(3,4,5-trifluorophenyl)propanamide], below 1 µM; in that of `Cc1c(NC(=O)CCc2cc(F)c(F)c(F)c2)cnn1-c1ccncc1` [Example 84, N-(5-Methyl-1-(pyridin-4-yl)-1H-pyrazol-4-yl)-3-(3,4,5-trifluorophenyl)propanamide], below 1 µM.

Consider `Cc1c(N2C(=O)[C@H](Cc3ccc(Cl)cc3)NC2(C)C)cnn1-c1ccncc1` [Example 152, (S)-5-(4-Chlorobenzyl)-2,2-dimethyl-3-(5-methyl-1-(pyridin-4-yl)-1H-pyrazol-4-yl)imidazolidin-4-one], for which the IC50 was 1 to 10 µM.

As for `O=C(CCc1cc(F)c(Cl)c(F)c1)Nc1cnn(-c2ccncc2)c1Cl` [Example 91, N-(5-Chloro-1-(pyridin-4-yl)-1H-pyrazol-4-yl)-3-(4-chloro-3,5-difluorophenyl)propanamide], the IC50 is below 1 µM. Turning to `Cc1c(-c2ccncc2)n[nH]c1NC(=O)CCc1cc(F)c(F)c(F)c1` [Example 50, N-(4-Methyl-3-(pyridin-4-yl)-1H-pyrazol-5-yl)-3-(3,4,5-trifluorophenyl)propanamide], the IC50 was below 1 µM. For the molecule `N#Cc1ccc(CCC(=O)Nc2[nH]nc(-c3ccncc3)c2Cl)cc1F` [Example 129], the IC50 is below 1 µM. To `Cc1c(-c2ccncc2)n[nH]c1NC(=O)CCc1cnc(Cl)s1` [Example 75, 3-(2-Chlorothiazol-5-yl)-N-(4-methyl-3-(pyridin-4-yl)-1H-pyrazol-5-yl)propanamide] belongs below 1 µM; to `O=C(CCc1ccc(Cl)cc1)Nc1cnn(-c2ccncc2)c1` [Example 89, 3-(4-Chlorophenyl)-N-(1-(pyridin-4-yl)-1H-pyrazol-4-yl)propanamide], 1 to 10 µM.

As for `CN(C(=O)CCc1ccc(Cl)cc1)c1cnn(-c2ccncc2)c1` [Example 134, 3-(4-Chlorophenyl)-N-methyl-N-(1-(pyridin-4-yl)-1H-pyrazol-4-yl)propanamide], the IC50 fell in the range of 1 to 10 µM. For the molecule `O=C(CCc1ccc(Cl)cc1)Nc1nc(-c2ccncc2)c[nH]1` [Example 108], the IC50 lay within 1 to 10 µM.

For `Cc1ccccc1CCC(=O)Nc1[nH]nc(-c2ccncc2)c1C` [Example 26, N-(4-Methyl-3-(pyridin-4-yl)-1H-pyrazol-5-yl)-3-(o-tolyl)propanamide], the IC50 was in the range of 1 to 10 µM. For the molecule `O=C(CCc1ccc(F)cc1)Nc1cnn(-c2ccncc2)c1` [Example 115], the IC50 is 1 to 10 µM. On to `Cc1c(-c2ccncc2)n[nH]c1NC(=O)CCc1ccccc1Cl` [Example 23, 3-(2-Chlorophenyl)-N-(4-methyl-3-(pyridin-4-yl)-1H-pyrazol-5-yl)propanamide], for which the IC50 was in the range of 1 to 10 µM. To `Cc1c(-c2ccncc2)n[nH]c1NC(=O)C(F)Cc1ccc(Cl)cc1` (racemic) [Example 18, (rac)-3-(4-chlorophenyl)-2-fluoro-N-(4-methyl-3-(pyridin-4-yl)-1H-pyrazol-5-yl)propanamide] belongs below 1 µM; to `Cc1c(-c2ccncc2)n[nH]c1NC(=O)CCc1ccc(Br)cc1` [Example 35, 3-(4-Bromophenyl)-N-(4-methyl-3-(pyridin-4-yl)-1H-pyrazol-5-yl)propanamide], below 1 µM; to `N[C@@H](Cc1ccc(Cl)cc1)C(=O)Nc1cc(-c2ccncc2)n[nH]1` [Example 153, (S)-2-Amino-3-(4-chlorophenyl)-N-(3-(pyridin-4-yl)-1H-pyrazol-5-yl)propanamide], below 1 µM. Consider `O=C(NCc1cc(F)c(Cl)c(F)c1)Nc1cc(-c2ccncc2)n[nH]1` [Example 163, 1-(4-Chloro-3,5-difluorobenzyl)-3-(3-(pyridin-4-yl)-1H-pyrazol-5-yl)urea], for which the IC50 is below 1 µM. In the case of `Cc1c(-c2ccncc2)n[nH]c1N(C(=O)CCc1ccc(Cl)cc1)S(C)(=O)=O` [Example 11, 3-(4-Chlorophenyl)-N-(4-methyl-3-(pyridin-4-yl)-1H-pyrazol-5-yl)-N-(methylsulfonyl)propanamide] it was below 1 µM; in that of `Cc1c(-c2ccncc2)n[nH]c1NC(=O)CSc1ccc(Cl)cc1` [Example 63, 2-((4-Chlorophenyl)thio)-N-(4-methyl-3-(pyridin-4-yl)-1H-pyrazol-5-yl)acetamide], below 1 µM; in that of `Cc1c(-c2ccncc2)n[nH]c1NC(=O)CCc1ccc(C#N)cc1` [Example 36, 3-(4-Cyanophenyl)-N-(4-methyl-3-(pyridin-4-yl)-1H-pyrazol-5-yl)propanamide], below 1 µM. As for `Cc1c(-c2ccncc2)n[nH]c1NC(=O)CCc1ccc(F)nc1` [Example 59, 3-(6-Fluoropyridin-3-yl)-N-(4-methyl-3-(pyridin-4-yl)-1H-pyrazol-5-yl)propanamide], the IC50 was below 1 µM. To `Cc1c(-c2ccncc2)n[nH]c1NC(=O)N[C@H](C)c1ccc(Cl)cc1` [Example 148, (R)-1-(1-(4-Chlorophenyl)ethyl)-3-(4-methyl-3-(pyridin-4-yl)-1H-pyrazol-5-yl)urea] belongs 1 to 10 µM; to `Cc1c(NC(=O)CCc2cc(F)c(Cl)c(F)c2)cnn1-c1ccncc1` [Example 83, 3-(4-Chloro-3,5-difluorophenyl)-N-(5-methyl-1-(pyridin-4-yl)-1H-pyrazol-4-yl)propanamide], below 1 µM; to `Cc1c(-c2ccncc2)n[nH]c1NC(=O)C1CC1c1ccc(Cl)cc1` (centres unmarked) [Example 135, 2-(4-Chlorophenyl)-N-(4-methyl-3-(pyridin-4-yl)-1H-pyrazol-5-yl)cyclopropane-1-carboxamide], 1 to 10 µM. With `N#Cc1c(F)cc(CCC(=O)Nc2cnn(-c3ccncc3)c2Cl)cc1F` [Example 93, N-(5-Chloro-1-(pyridin-4-yl)-1H-pyrazol-4-yl)-3-(4-cyano-3,5-difluorophenyl)propanamide], the IC50 is below 1 µM.

Turning to `Cc1cccc(CCC(=O)Nc2[nH]nc(-c3ccncc3)c2C)c1` [Example 25, N-(4-Methyl-3-(pyridin-4-yl)-1H-pyrazol-5-yl)-3-(m-tolyl)propanamide], the IC50 lay in the range of 1 to 10 µM. On to `Cn1c(-c2ccncc2)cnc1NC(=O)CCc1ccc(Cl)cc1` [Example 132], for which the IC50 lay within 1 to 10 µM. To `Cc1c(-c2ccncc2)n[nH]c1NC(=O)CCc1cc(F)c(Cl)cc1F` [Example 40, 3-(4-Chloro-2,5-difluorophenyl)-N-(4-methyl-3-(pyridin-4-yl)-1H-pyrazol-5-yl)propanamide] belongs below 1 µM. To `C#Cc1ccc(CCC(=O)Nc2[nH]nc(-c3ccncc3)c2C)cc1` [Example 140] belongs below 1 µM; to `O=C(CCc1cc(F)c(F)c(F)c1)Nc1[nH]nc(-c2ccncc2)c1CO` [Example 119], below 1 µM. On to `Cc1c(-c2ccncc2)n[nH]c1N(C(=O)CCc1ccc(Cl)cc1)C(=O)CCc1ccccc1Cl` [Example 5, 3-(2-Chlorophenyl)-N-(3-(4-chlorophenyl)propanoyl)-N-(4-methyl-3-(pyridin-4-yl)-1H-pyrazol-5-yl)propanamide], for which the IC50 is below 1 µM.

On to `CC(=O)N(C(=O)CCc1ccc(Cl)cc1)c1[nH]nc(-c2ccncc2)c1C` [Example 1], for which the IC50 was below 1 µM. `Cc1c(-c2ccncc2)n[nH]c1NC(=S)CCc1ccc(Cl)cc1` [Example 124, 3-(4-Chlorophenyl)-N-[4-methyl-3-(pyridin-4-yl)-1H-pyrazol-5-yl]propanethioamide]: the IC50 was below 1 µM. `Cc1c(-c2ccncc2)n[nH]c1NC(=O)CCc1ccc(Cl)cn1` [Example 39, 3-(5-Chloropyridin-2-yl)-N-(4-methyl-3-(pyridin-4-yl)-1H-pyrazol-5-yl)propanamide]: the IC50 lay within 1 to 10 µM. To `Cc1c(-c2ccncc2)n[nH]c1NC(=O)CNc1ccc(Cl)cc1` [Example 79, 2-((4-Chlorophenyl)amino)-N-(4-methyl-3-(pyridin-4-yl)-1H-pyrazol-5-yl)acetamide] belongs below 1 µM.

By IC50 is commonly meant the concentration that inhibits the measured activity by half.
